From ChEMBL document CHEMBL3396950, “Enantioselective synthesis of dictyoceratin-A (smenospondiol) and -C, hypoxia-selective growth inhibitors from marine sponge” (Bioorg Med Chem, 2015)

System: DU-145
Experiment: Antiproliferative activity against human DU145 cells assessed as growth inhibition treated after 12 hrs hypoxic condition and incubated additional 24 hrs under hypoxic condition by MTT assay
Type: functional, cell-based

SMILES | inhibition
C=C1CCC[C@@H]2[C@@](C)(Cc3cc(C(=O)OC)ccc3O)[C@H](C)CC[C@@]12C | Dose-dependent effect
C=C1CCC[C@@H]2[C@@](C)(Cc3cc(C(=O)OC)cc(O)c3O)[C@H](C)CC[C@@]12C | Dose-dependent effect
C=C1CCC[C@H]2[C@](C)(Cc3cc(C(=O)OC)cc(O)c3O)[C@@H](C)CC[C@]12C | Dose-dependent effect
C=C1CCC[C@H]2[C@](C)(Cc3cc(C(=O)OC)ccc3O)[C@@H](C)CC[C@]12C | Dose-dependent effect
